PubChem BioAssay (NCI)
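Five compound concentrations were applied to cells in 96-well plates for 48 hours; endpoints were derived by simple linear interpolation of the resulting dose-response curve. GI50 = concentration required for 50% inhibition of growth. TGI: total growth inhibition.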

Tests used:
Assay in all cases: inhibition of tumour cell growth, NCI panel, 48 h
[1] = test system: U251 CNS
[2] = test system: HL-60(TB) leukemia
[3] = test system: SF-268 CNS
[4] = test system: SF-295 CNS
[5] = test system: OVCAR-3 ovarian
[6] = test system: BT-549 breast
[7] = test system: NCI-H522 lung
[8] = test system: SN12C renal
[9] = test system: EKVX NSCLC
[10] = test system: IGROV1 ovarian
[11] = test system: UACC-257 melanoma
[12] = test system: SW-620 colon
[13] = test system: HOP-92 NSCLC
[14] = test system: HOP-62 NSCLC
[15] = test system: MCF7 breast
[16] = test system: NCI/ADR-RES ovarian
[17] = test system: MOLT-4 leukemia
[18] = test system: CAKI-1 renal
[19] = test system: SK-MEL-28 melanoma
[20] = test system: DU-145 prostate
[21] = test system: ACHN renal
[22] = test system: COLO 205 colon
[23] = test system: CCRF-CEM leukemia
[24] = test system: T-47D breast
[25] = test system: MALME-3M melanoma
[26] = test system: K-562 leukemia
[27] = test system: OVCAR-8 ovarian
[28] = test system: SK-OV-3 ovarian
[29] = test system: HS 578T breast
[30] = test system: HCT-116 colon
[31] = test system: UACC-62 melanoma
[32] = test system: NCI-H226 lung
[33] = test system: HT29 colon
[34] = test system: TK-10 renal
[35] = test system: SNB-19 CNS
[36] = test system: NCI-H23 lung
[37] = test system: SR leukemia
[38] = test system: HCC-2998 colon
[39] = test system: A549 NSCLC
[40] = test system: SF-539 CNS
[41] = test system: HCT-15 colon
[42] = test system: A498 renal
[43] = test system: MDA-MB-231 breast
[44] = test system: 786-0 renal
[45] = test system: KM12 colon
[46] = test system: RXF 393 renal
[47] = test system: OVCAR-4 ovarian
[48] = test system: SNB-75 CNS
[49] = test system: M14 melanoma
[50] = test system: UO-31 renal
[51] = test system: LOX IMVI melanoma
[52] = test system: SK-MEL-5 melanoma
[53] = test system: NCI-H460 lung
[54] = test system: RPMI-8226 leukemia
[55] = test system: OVCAR-5 ovarian
[56] = test system: PC-3 prostate
[57] = test system: MDA-MB-435
[58] = test system: SK-MEL-2 melanoma

SMILES: NC(=O)c1c(NC(=O)c2ccc(C3CCCCC3)cc2)sc2c1CCC(=O)C2
- GI50 [1]: 246 nM
- TGI [1]: 1620 nM
- GI50 [2]: 307 nM
- TGI [2]: > 30800 nM
- GI50 [3]: 532 nM
- TGI [3]: 3460 nM
- GI50 [4]: 681 nM
- TGI [4]: 2500 nM
- GI50 [5]: 389 nM
- TGI [5]: 2620 nM
- GI50 [6]: 283 nM
- TGI [6]: 1390 nM
- GI50 [7]: 227 nM
- TGI [7]: 1450 nM
- GI50 [8]: 438 nM
- TGI [8]: 2830 nM
- GI50 [9]: 502 nM
- TGI [9]: 3210 nM
- GI50 [10]: 434 nM
- TGI [10]: 2030 nM
- GI50 [11]: 725 nM
- TGI [11]: 3230 nM
- GI50 [12]: 142 nM
- TGI [12]: 1660 nM
- GI50 [13]: 246 nM
- TGI [13]: 1040 nM
- GI50 [14]: 1480 nM
- TGI [14]: 24100 nM
- GI50 [15]: 292 nM
- TGI [15]: 2530 nM
- GI50 [16]: 360 nM
- TGI [16]: 5040 nM
- GI50 [17]: 357 nM
- TGI [17]: > 22400 nM
- GI50 [18]: 248 nM
- TGI [18]: 1470 nM
- GI50 [19]: 509 nM
- TGI [19]: 2150 nM
- GI50 [20]: 1730 nM
- TGI [20]: > 100000 nM
- GI50 [21]: 164 nM
- TGI [21]: 598 nM
- GI50 [22]: 208 nM
- TGI [22]: 650 nM
- GI50 [23]: 142 nM
- GI50 [24]: 193 nM
- TGI [24]: 2340 nM
- GI50 [25]: 314 nM
- TGI [25]: 1190 nM
- GI50 [26]: 122 nM
- TGI [26]: > 100000 nM
- GI50 [27]: 380 nM
- TGI [27]: > 20200 nM
- GI50 [28]: 1180 nM
- TGI [28]: 5890 nM
- GI50 [29]: 383 nM
- TGI [29]: 5710 nM
- GI50 [30]: 108 nM
- TGI [30]: 1300 nM
- GI50 [31]: 276 nM
- TGI [31]: 1430 nM
- GI50 [32]: 705 nM
- TGI [32]: 2610 nM
- GI50 [33]: 268 nM
- TGI [33]: 1810 nM
- GI50 [34]: 373 nM
- TGI [34]: 2300 nM
- GI50 [35]: 426 nM
- TGI [35]: 3010 nM
- GI50 [36]: 314 nM
- TGI [36]: 4340 nM
- GI50 [37]: 108 nM
- GI50 [38]: 1100 nM
- TGI [38]: 5410 nM
- GI50 [39]: 419 nM
- TGI [39]: 6080 nM
- GI50 [40]: 211 nM
- TGI [40]: 826 nM
- GI50 [41]: 155 nM
- TGI [41]: 1260 nM
- GI50 [42]: 1990 nM
- TGI [42]: 5840 nM
- GI50 [43]: 384 nM
- TGI [43]: 1750 nM
- GI50 [44]: 663 nM
- TGI [44]: 2870 nM
- GI50 [45]: 349 nM
- TGI [45]: 5260 nM
- GI50 [46]: 301 nM
- TGI [46]: 1190 nM
- GI50 [47]: 377 nM
- TGI [47]: 1710 nM
- GI50 [48]: 1390 nM
- TGI [48]: 3420 nM
- GI50 [49]: 371 nM
- TGI [49]: 1870 nM
- GI50 [50]: 177 nM
- TGI [50]: 690 nM
- GI50 [51]: 186 nM
- TGI [51]: 1010 nM
- GI50 [52]: 630 nM
- TGI [52]: 1770 nM
- GI50 [53]: 645 nM
- TGI [53]: 3640 nM
- GI50 [54]: 135 nM
- TGI [54]: 596 nM
- GI50 [55]: 402 nM
- TGI [55]: 1980 nM
- GI50 [56]: 130 nM
- TGI [56]: 1590 nM
- GI50 [57]: 611 nM
- TGI [57]: 2170 nM
- GI50 [58]: 980 nM
- TGI [58]: 3530 nM
